Experimental findings from publication PMC6749370, “Antibacterial Evaluation, In Silico Characters and Molecular Docking of Schiff Bases Derived from 5-aminopyrazoles” (Molecules, 2019) are described below.

The subject of assay [1] is Staphylococcus epidermis (Se). The assay can be described thus: Minimal inhibitory concentration against multi-drug resistant bacteria. Format: cell-based. The conditions noted are these: NA: No Activity. The method, then:
(§1) In vitro antibacterial activities against multi-drug resistant bacteria (MDRB) of Schiff bases 14–25 were performed at botany and microbiology department, Faculty of Science, Al-Azhar University, Cairo, Egypt. The antibacterial potential of 14–25 were investigated towards the multi-drug resistant bacteria (MDRB).
(§2) The synthesized compounds, Schiff bases 14–25, were in vitro evaluation of their antibacterial properties against multi-drug resistant bacteria (MDRB). Examples of Gram-positive bacteria are Staphylococcus aureus (MRSA, Sa), Staphylococcus epidermis (Sp), and Enterococcus faecalis (Ef). Examples of Gram-negative bacteria are Acinetobacter baumannii (Ab), Enterobacter cloaca (Ecl), and Escherichia coli (Ec). All the tested strain was identified by Vitek®2 system.

For assay [2], the system named is Enterobacter cloaca (Ecl). The description is as above. Format: cell-based. The conditions noted are these: NA: No Activity. The method, then:
as §1, §2

In assay [3] the test system is Enterococcus faecalis (Ef). The assay is described as above. The assay is classed as cell-based. The conditions noted are these: NA: No Activity. How it is done:
(§3) In vitro antibacterial activities against multi-drug resistant bacteria (MDRB) of Schiff bases 14–25 were performed at botany and microbiology department, Faculty of Science, Al-Azhar University, Cairo, Egypt. The antibacterial potential of 14–25 were investigated towards the multi-drug resistant bacteria (MDRB). The results were summarized as the diameter of the inhibition zones in mm and minimal inhibitory concentration (MIC, µg/mL) values in Table 2.
(§4) The synthesized compounds, Schiff bases 14–25, were in vitro evaluation of their antibacterial properties against multi-drug resistant bacteria (MDRB). Examples of Gram-positive bacteria are Staphylococcus aureus (MRSA, Sa), Staphylococcus epidermis (Sp), and Enterococcus faecalis (Ef). Examples of Gram-negative bacteria are Acinetobacter baumannii (Ab), Enterobacter cloaca (Ecl), and Escherichia coli (Ec). All the tested strain was identified by Vitek®2 system. The multi-drug resistant to antibiotics such as Ampicillin, Cephalexin, Colisin, Ipemenem, and Meropenem was verified.

For assay [4], the system named is Staphylococcus aureus (MRSA, Sa). Described as above. Format: cell-based. The conditions noted are these: NA: No Activity. The method, then: as §3, §4
Another assay deals with Topoisomerase IV (Staphylococcus aureus, UniProt P0C1S7+P0C1U9). The assay can be described thus: In vitro enzyme inhibition assay. Format: biochemical.
Assay [5] concerns the target Staphylococcus aureus DNA gyrase (Staphylococcus aureus, UniProt P0A0K8+P20831). The assay is described as follows: In vitro enzyme inhibition assay. Format: biochemical. To be noted: mean of three values, read-out: IC50 (Mean ± SEM) DNA Gyrase.
In assay [6] the test system is Acinetobacter baumannii (Ab). The assay can be described thus: Minimal inhibitory concentration against multi-drug resistant bacteria. To be noted: NA: No Activity. Format: cell-based. The method, then:
as §1, §2

A further assay deals with Escherichia coli (Ec). Described as above. Format: cell-based. To be noted: NA: No Activity. How it is done: as §3, §4

In brackets after ≈: the same amount, converted by molar mass. Marks after values point to notes of the source that are not given here.

Topoisomerase IV, sequence (P0C1S7 whole entry): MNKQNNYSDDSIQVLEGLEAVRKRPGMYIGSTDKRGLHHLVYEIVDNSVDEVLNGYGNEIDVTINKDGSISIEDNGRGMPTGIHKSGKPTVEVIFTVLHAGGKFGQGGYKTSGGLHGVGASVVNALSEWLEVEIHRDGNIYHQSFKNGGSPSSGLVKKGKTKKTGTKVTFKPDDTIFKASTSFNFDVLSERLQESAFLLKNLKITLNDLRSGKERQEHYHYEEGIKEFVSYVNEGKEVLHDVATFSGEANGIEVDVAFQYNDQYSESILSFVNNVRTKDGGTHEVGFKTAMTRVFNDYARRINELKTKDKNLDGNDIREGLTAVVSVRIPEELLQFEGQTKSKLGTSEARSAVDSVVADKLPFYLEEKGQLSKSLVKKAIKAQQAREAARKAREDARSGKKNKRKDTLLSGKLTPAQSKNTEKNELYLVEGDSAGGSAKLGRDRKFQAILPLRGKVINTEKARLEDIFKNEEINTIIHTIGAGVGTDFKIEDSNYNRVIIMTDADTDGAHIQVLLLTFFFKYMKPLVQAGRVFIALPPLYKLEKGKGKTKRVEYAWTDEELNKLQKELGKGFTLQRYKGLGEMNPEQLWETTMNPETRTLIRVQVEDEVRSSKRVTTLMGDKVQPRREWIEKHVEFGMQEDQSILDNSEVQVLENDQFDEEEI
Topoisomerase IV, sequence (P0C1U9 whole entry): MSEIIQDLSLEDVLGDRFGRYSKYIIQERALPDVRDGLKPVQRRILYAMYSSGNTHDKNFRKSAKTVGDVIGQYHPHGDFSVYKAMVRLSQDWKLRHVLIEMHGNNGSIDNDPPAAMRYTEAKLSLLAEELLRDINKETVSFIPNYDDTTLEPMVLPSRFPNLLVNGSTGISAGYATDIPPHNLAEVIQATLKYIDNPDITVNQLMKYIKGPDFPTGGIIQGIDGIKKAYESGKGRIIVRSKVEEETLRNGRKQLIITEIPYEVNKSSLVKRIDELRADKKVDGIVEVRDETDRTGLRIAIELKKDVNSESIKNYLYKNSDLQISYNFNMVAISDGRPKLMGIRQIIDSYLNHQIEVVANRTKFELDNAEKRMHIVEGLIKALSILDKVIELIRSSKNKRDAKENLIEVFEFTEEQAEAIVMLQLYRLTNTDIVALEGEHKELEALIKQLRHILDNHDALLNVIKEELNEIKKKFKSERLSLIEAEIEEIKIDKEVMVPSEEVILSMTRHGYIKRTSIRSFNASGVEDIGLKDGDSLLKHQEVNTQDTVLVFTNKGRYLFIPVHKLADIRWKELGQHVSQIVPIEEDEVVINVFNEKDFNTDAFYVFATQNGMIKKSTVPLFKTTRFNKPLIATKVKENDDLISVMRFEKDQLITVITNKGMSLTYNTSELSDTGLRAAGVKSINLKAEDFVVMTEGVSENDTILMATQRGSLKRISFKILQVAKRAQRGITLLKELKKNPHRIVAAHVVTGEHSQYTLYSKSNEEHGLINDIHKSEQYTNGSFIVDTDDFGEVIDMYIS
Staphylococcus aureus DNA gyrase, sequence (P20831 whole entry): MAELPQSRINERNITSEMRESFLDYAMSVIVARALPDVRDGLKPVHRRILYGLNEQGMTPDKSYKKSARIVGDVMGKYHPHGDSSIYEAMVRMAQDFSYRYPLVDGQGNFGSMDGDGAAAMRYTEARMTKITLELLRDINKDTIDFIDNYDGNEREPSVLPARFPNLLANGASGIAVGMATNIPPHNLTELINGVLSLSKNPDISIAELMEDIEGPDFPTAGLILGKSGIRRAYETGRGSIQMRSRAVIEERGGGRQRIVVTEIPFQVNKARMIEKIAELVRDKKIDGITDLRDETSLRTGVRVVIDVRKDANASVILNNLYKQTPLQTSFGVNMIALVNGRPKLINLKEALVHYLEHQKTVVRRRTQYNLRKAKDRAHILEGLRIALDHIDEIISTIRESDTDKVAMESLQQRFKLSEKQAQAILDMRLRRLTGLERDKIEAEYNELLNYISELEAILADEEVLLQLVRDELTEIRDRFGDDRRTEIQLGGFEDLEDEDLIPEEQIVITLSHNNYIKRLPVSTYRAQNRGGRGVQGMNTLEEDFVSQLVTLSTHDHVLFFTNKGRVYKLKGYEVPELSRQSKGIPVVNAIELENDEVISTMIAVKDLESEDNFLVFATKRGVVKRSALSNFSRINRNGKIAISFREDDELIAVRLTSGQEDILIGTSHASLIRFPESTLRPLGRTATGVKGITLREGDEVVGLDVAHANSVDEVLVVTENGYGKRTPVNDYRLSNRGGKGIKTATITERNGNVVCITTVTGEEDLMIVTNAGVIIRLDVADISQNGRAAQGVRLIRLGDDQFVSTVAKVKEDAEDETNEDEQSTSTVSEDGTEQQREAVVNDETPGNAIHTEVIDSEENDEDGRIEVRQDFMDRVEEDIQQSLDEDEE
Staphylococcus aureus DNA gyrase, sequence (P0A0K8 whole entry): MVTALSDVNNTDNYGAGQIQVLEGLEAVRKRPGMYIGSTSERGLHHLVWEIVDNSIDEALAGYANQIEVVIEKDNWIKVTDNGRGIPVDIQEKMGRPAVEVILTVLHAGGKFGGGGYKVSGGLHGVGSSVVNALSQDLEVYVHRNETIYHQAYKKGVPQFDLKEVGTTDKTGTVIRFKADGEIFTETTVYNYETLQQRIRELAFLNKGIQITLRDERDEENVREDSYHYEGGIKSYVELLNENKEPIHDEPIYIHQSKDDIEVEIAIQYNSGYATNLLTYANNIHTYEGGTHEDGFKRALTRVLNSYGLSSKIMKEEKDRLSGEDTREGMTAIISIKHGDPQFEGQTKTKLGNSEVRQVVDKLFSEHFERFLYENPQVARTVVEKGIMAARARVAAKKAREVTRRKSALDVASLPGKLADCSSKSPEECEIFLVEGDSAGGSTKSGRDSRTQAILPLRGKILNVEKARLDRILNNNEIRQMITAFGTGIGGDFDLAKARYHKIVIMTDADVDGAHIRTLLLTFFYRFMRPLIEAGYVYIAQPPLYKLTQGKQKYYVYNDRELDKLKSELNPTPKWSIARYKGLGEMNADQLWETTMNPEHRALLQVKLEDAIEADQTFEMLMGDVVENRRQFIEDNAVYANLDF

On to `COc1ccc(Nc2n[nH]c(/N=C/c3ccc(C)cc3)c2C(=O)Nc2ccc(Cl)cc2)cc1` [Compound 23], for which the MIC in assay [1] was 15.6 µg/mL (≈ 34 µM); in assay [2], 62.5 µg/mL (≈ 136 µM); in assay [3], 7.81 µg/mL (≈ 17 µM); in assay [4], 31.2 µg/mL (≈ 67.9 µM). The “Minimal inhibitory concentration (MIC), Ef” value in assay [3] is listed as 7.81 * µg/mL.

For `COc1ccc(Nc2n[nH]c(/N=C/c3ccccc3)c2C(=O)Nc2ccc(Cl)cc2)cc1` [Compound 22], the MIC came to 125 µg/mL (≈ 280 µM) in assay [1], 15.6 µg/mL (≈ 35 µM) in assay [2], 125 µg/mL (≈ 280 µM) in assay [3] and 250 µg/mL (≈ 561 µM) in assay [4]. Also, the “Minimal inhibitory concentration (MIC), Ecl” value in assay [2] is recorded as 15.62 * µg/mL.

Regarding `COc1ccc(Nc2n[nH]c(/N=C/c3ccccc3)c2C(=O)Nc2ccc(C)cc2)cc1` [Compound 18], the IC50 against Topoisomerase IV was found to be 74.6 ± 1.2 µM; in assay [5] it was 1.68 ± 0.1 µM. Moreover, the minimal inhibitory concentration (MIC) in assay [1] is 7.81 µg/mL (≈ 18.4 µM); in assay [6] it was 15.6 µg/mL (≈ 36.7 µM); in assay [2], 62.5 µg/mL (≈ 147 µM); in assay [3] it was 31.2 µg/mL (≈ 73.4 µM); in the assay with Escherichia coli (Ec), 250 µg/mL (≈ 588 µM); in assay [4] it was 15.6 µg/mL (≈ 36.7 µM). The “Minimal inhibitory concentration (MIC), Ab” value in assay [6] was 15.62 * µg/mL. Moreover, the “Minimal inhibitory concentration (MIC), Sa” value in assay [4] was 15.62 * µg/mL.

As to `COc1ccc(Nc2n[nH]c(/N=C/c3ccccc3)c2C(=O)Nc2ccccc2)cc1` [Compound 14], the MIC was 7.81 µg/mL (≈ 19 µM) in assay [1], 125 µg/mL (≈ 304 µM) in assay [2], 15.6 µg/mL (≈ 38 µM) in assay [3] and 31.2 µg/mL (≈ 75.9 µM) in assay [4].

As to `O=C(O)c1cn(C2CC2)c2cc(N3CCNCC3)c(F)cc2c1=O` [Ciprofloxacin, reference compound], the MIC (in assay [3]; in the assay on Escherichia coli (Ec); in assay [4]) was 7.81 µg/mL (≈ 23.6 µM) each time.

`COc1ccc(Nc2n[nH]c(/N=C/c3ccc(Cl)cc3)c2C(=O)Nc2ccc(C)cc2)cc1` [Compound 20]: the MIC in assay [1] came out at 125 µg/mL (≈ 272 µM); in assay [3], 250 µg/mL (≈ 544 µM); in assay [4], 62.5 µg/mL (≈ 136 µM).

For `COc1ccc(Nc2n[nH]c(/N=C/c3ccc(F)cc3)c2C(=O)Nc2ccc(C)cc2)cc1` [Compound 21], the minimal inhibitory concentration (MIC) in assay [1] was determined as 62.5 µg/mL (≈ 141 µM); in assay [4] it was 125 µg/mL (≈ 282 µM).

In the case of `COc1ccc(Nc2n[nH]c(/N=C/c3ccc(F)cc3)c2C(=O)Nc2ccccc2)cc1` [Compound 17], the minimal inhibitory concentration (MIC) is 31.2 µg/mL (≈ 72.8 µM) in assay [1]; 62.5 µg/mL (≈ 146 µM) in assay [6]; 125 µg/mL (≈ 291 µM) in assay [2]; 31.2 µg/mL (≈ 72.8 µM) in the assay with Escherichia coli (Ec); 62.5 µg/mL (≈ 146 µM) in assay [4]. Further, the “Minimal inhibitory concentration (MIC), Ec” value with Escherichia coli (Ec) is on record as 31.25 * µg/mL.

On to `COc1ccc(Nc2n[nH]c(/N=C/c3ccc(Cl)cc3)c2C(=O)Nc2ccccc2)cc1` [Compound 16], for which the MIC worked out at 7.81 µg/mL (≈ 17.5 µM) in assay [1]; 15.6 µg/mL (≈ 35 µM) in assay [6]; 62.5 µg/mL (≈ 140 µM) in assay [2]; 62.5 µg/mL (≈ 140 µM) in assay [3]; 125 µg/mL (≈ 280 µM) against Escherichia coli (Ec); 31.2 µg/mL (≈ 70.1 µM) in assay [4]. Besides, the “Minimal inhibitory concentration (MIC), Ab” value in assay [6] is on record as 15.62 * µg/mL.

For the molecule `COc1ccc(Nc2n[nH]c(/N=C/c3ccc(Cl)cc3)c2C(=O)Nc2ccc(Cl)cc2)cc1` [Compound 24], the MIC stood at 62.5 µg/mL (≈ 130 µM) in assay [1]; 62.5 µg/mL (≈ 130 µM) in assay [2]; 15.6 µg/mL (≈ 32.5 µM) in assay [3]; 125 µg/mL (≈ 260 µM) with Escherichia coli (Ec); 125 µg/mL (≈ 260 µM) in assay [4].

Take `COc1ccc(Nc2n[nH]c(/N=C/c3ccc(C)cc3)c2C(=O)Nc2ccccc2)cc1` [Compound 15]: the MIC worked out at 15.6 µg/mL (≈ 36.7 µM) in assay [1]; 62.5 µg/mL (≈ 147 µM) in assay [6]; 62.5 µg/mL (≈ 147 µM) in assay [2]; 31.2 µg/mL (≈ 73.4 µM) in assay [3]; 125 µg/mL (≈ 294 µM) in the assay on Escherichia coli (Ec); 62.5 µg/mL (≈ 147 µM) in assay [4]. The “Minimal inhibitory concentration (MIC), Sa” value in assay [4] is given as 62.50 µg/mL (≈ 147 µM).

Take `COc1ccc(Nc2n[nH]c(/N=C/c3ccc(C)cc3)c2C(=O)Nc2ccc(C)cc2)cc1` [Compound 19]: the minimal inhibitory concentration (MIC) in assay [1] stood at 15.6 µg/mL (≈ 35.5 µM); in assay [6], 62.5 µg/mL (≈ 142 µM); in assay [2], 125 µg/mL (≈ 284 µM); in assay [3], 15.6 µg/mL (≈ 35.5 µM); against Escherichia coli (Ec) it was 62.5 µg/mL (≈ 142 µM); in assay [4], 31.2 µg/mL (≈ 71.1 µM).
